According to patent US12509446B2, “FYN and VEGFR2 kinase inhibitors” (ROTTAPHARM BIOTECH S.R.L., priority 2019, dated 2025):

Legend:
[1] = test system: rat primary articular chondrocytes; experiment: Toxicity analysis (MTT) in rat primary chondrocytes; conditions: for First toxic concentration at 24 h: rat primary chondrocytes
Fyn = Fyn (Homo sapiens (Human), UniProt P06241); experiment: Z′-LYTE in vitro Fyn kinase activity assay; assay type: biochemical; conditions: ATP 50 μM; read-out: FYN KINASE INHIBITION IC50
Procedure, shortened: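 Z′-LYTE FRET format with full-length active Fyn in 50 mM Hepes pH 7.5, 10 mM MgCl2, 1 mM EGTA, 0.01% Brij-35, 1% DMSO final; 60 minutes at 25° C. Percent phosphorylation from 0% and 100% phosphorylation controls; IC50 by non-linear curve fitting of percent inhibition.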

NF-kB = experiment: Gene reporter (GR) assay, NF-kB activation after TNFα in JB6 Cl 41-5a (P+) cells; assay type: cell-based, murine; conditions: Mus musculus, JB6 Cl 41-5a, TNFα 2 ng/ml, non toxic concentrations; read-out: Gene reporter (GR) inhibition IC50
Procedure, shortened: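 Murine JB6 Cl 41-5a (P+) cells stably carrying an NF-kB-RE luc2P reporter were pre-treated with compound for 1 h, then stimulated with 2 ng/ml TNFα for 4 h. Luciferase read-out with a paired viability read; quadruplicates.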

MMP3 = experiment: Gene expression in rat articular chondrocytes under IL-1β stimulation, MMP3; assay type: cell-based; parameters: key to MMP3 gene expression, no effect: ne: no effect; conditions: for IC50: Rattus norvegicus, Chondrocyte, 24 h incubation
Procedure: (§1) For gene expression analysis, 10 days after plating, the medium was changed and substituted with DMEM GlutaMAX I 0.4% to synchronize the cells. The cells were then co-treated in DMEM GlutaMAX I 0.4% with different concentrations of the test compounds and […] at a final concentration of 2 ng/ml for 6 h and 24 h. The test compound concentrations used have been chosen on the basis of the toxicity data.
(§2) At the end of the incubation, the supernatant was discarded, the cell were washed with cold PBS1X and scraped with 200 μl of RNA lysis buffer 1X (Nucleic Acid Purification Lysis Solution, Applied Biosystems).
(§3) Total RNA was purified using ABI Prism™ 6100 Nucleic Acid PrepStation (Applied Biosystems) following manufacturer's instructions.
(§4) Total RNA was retrotranscribed using the High-Capacity cDNA Archive Kit (Applied Biosystems-Thermo Fisher Scientific) following manufacturer's instructions.
(§5) The specific probes and primers for RealTime PCR were from Applied Biosystems (Thermo Fisher Scientific) as Assays-on-Demand™, while the probe and primers for the endogenous control 18S was a PDAR (Pre-Developed TaqMan® Assay Reagents—Applied Biosystems-Thermo Fisher Scientific).
(§6) The assays were designed to amplify target cDNA without amplifying genomic DNA.
(§7) Gene expression analysis for IL-1β, IL-6 and ADAMTS-5 were performed at 6 h incubation, while the gene expression analysis for MMP3, MMP13 and COX2 were performed at 24 h incubation.
(§8) For each compound the maximal concentration tested was dependent on the toxicity results obtained on primary rat chondrocytes.
(§9) The data analysis, with the normalisation on the amplified values for the 18S was done following the specific instruction of Applied Biosystems for the relative quantification of gene expression.

COX2 = experiment: Gene expression in rat articular chondrocytes under IL-1β stimulation, COX2; assay type: cell-based; conditions: 24 h
ADAMTS-5 = experiment: Gene expression in rat articular chondrocytes under IL-1β stimulation, ADAMTS-5; assay type: cell-based; conditions: for IC50: Rattus norvegicus, Chondrocyte, 6 h incubation; for ADAMTS-5 gene expression, percentage of inhibitory effect at the highest non toxic concentration: 6 h
Procedure: as §1, §2, §3, §4, §5, §6, §7, §8, §9

MMP13 = experiment: Gene expression in rat articular chondrocytes under IL-1β stimulation, MMP13; assay type: cell-based; conditions: for MMP13 gene expression, percentage of inhibitory effect at the highest non toxic concentration: 24 h
Procedure: as §1, §2, §3, §4, §5, §6, §7, §8, §9

VEGFR2 = VEGFR2 (Homo sapiens (Human), UniProt P35968); experiment: In vitro VEGFR2 kinase activity assay (Eurofins Cerep); assay type: biochemical; conditions: read-out: VEGFR2 KINASE INHIBITION IC50
Procedure, shortened: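 Contract biochemical kinase assay on human VEGFR2 with inhibitors at 10^−8 to 10^−5 M final (some re-tested from 10^−9 M). Activity expressed as percent of no-compound control; IC50 by non-linear regression of mean replicate inhibition curves.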

[2] = test system: bovine nasal septum cartilage; experiment: Inhibition of cartilage degradation (GAG release) induced by IL-1α in a bovine in vitro model; assay type: cell-based
Procedure: Nasal septum cartilage was collected from an eight months-old male bovine in a local slaughterhouse.
Tissue was sprayed with ethanol 70% and immediately put in sterile PBS with Antibiotic-Antimycotic stabilized solution (PBS-AASS). It was cut in order to obtain small punches (diameter 2 mm, 1 mm-thick). washed with sterile PBS-AASS, the slices were transferred in a 96X well plate (one piece per well) in DMEM 10%+AASS. 48 h later the cartilage was stimulated in white DMEM+0.1% BSA+AASS with IL-1α […] in the absence or presence of the studied compounds.
The compounds concentration used in this analysis was chosen depending on the toxicity results obtained in rat primary chondrocytes at 48 h of incubation.
After 48 h stimulation, the culture medium was collected and stored at −80° C. The cartilage punches were digested with papain at 65° C. for 2 h in phosphate buffer (0.05M pH 6.5 with 2 mM N-acetil-L-cisteine and 2 mM EDTA).
The glycosaminoglycan (GAG) determination was done by a colorimetric assay with 1,9 dimethyl methylene blue (DMB).
Digested cartilage samples were diluted in PBS-BSA 1%. To 100 μl of diluted samples or standard we added 100 μl DMB 2X. After 5-20 min incubation the samples were read at 590 nm (Titertek Multiscan Plus).
The cartilage degradation induced by IL-1α was expressed as: GAG (medium)/total GAG (medium+cartilage)×100

IL-1β = experiment: Gene expression in rat articular chondrocytes under IL-1β stimulation, IL-1β; assay type: cell-based; conditions: for IL-1β gene expression, percentage of inhibitory effect at the highest non toxic concentration: 6 h
Procedure: as §1, §2, §3, §4, §5, §6, §7, §8, §9

IL-6 = experiment: Gene expression in rat articular chondrocytes under IL-1β stimulation, IL-6; assay type: cell-based; conditions: 6 h
Procedure: as §1, §2, §3, §4, §5, §6, §7, §8, §9

[3] = Bos taurus, read-out: Bovine cartilage degradation induced by IL-1α, % inhibitory effect at max concentration

Fyn, sequence (P06241 whole entry): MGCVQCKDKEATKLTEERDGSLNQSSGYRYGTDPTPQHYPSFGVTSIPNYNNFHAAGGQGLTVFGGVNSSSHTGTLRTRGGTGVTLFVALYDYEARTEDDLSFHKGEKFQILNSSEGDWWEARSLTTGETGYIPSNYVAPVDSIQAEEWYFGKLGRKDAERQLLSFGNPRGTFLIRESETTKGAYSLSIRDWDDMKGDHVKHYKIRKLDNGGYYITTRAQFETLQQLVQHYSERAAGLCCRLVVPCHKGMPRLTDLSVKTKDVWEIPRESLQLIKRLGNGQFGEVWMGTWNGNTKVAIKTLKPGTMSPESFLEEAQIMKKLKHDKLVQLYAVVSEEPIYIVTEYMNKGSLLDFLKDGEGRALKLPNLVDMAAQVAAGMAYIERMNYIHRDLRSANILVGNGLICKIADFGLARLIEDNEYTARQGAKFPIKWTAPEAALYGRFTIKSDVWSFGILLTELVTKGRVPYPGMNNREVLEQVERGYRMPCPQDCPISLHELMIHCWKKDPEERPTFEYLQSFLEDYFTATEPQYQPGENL
VEGFR2, sequence (P35968 20-1356): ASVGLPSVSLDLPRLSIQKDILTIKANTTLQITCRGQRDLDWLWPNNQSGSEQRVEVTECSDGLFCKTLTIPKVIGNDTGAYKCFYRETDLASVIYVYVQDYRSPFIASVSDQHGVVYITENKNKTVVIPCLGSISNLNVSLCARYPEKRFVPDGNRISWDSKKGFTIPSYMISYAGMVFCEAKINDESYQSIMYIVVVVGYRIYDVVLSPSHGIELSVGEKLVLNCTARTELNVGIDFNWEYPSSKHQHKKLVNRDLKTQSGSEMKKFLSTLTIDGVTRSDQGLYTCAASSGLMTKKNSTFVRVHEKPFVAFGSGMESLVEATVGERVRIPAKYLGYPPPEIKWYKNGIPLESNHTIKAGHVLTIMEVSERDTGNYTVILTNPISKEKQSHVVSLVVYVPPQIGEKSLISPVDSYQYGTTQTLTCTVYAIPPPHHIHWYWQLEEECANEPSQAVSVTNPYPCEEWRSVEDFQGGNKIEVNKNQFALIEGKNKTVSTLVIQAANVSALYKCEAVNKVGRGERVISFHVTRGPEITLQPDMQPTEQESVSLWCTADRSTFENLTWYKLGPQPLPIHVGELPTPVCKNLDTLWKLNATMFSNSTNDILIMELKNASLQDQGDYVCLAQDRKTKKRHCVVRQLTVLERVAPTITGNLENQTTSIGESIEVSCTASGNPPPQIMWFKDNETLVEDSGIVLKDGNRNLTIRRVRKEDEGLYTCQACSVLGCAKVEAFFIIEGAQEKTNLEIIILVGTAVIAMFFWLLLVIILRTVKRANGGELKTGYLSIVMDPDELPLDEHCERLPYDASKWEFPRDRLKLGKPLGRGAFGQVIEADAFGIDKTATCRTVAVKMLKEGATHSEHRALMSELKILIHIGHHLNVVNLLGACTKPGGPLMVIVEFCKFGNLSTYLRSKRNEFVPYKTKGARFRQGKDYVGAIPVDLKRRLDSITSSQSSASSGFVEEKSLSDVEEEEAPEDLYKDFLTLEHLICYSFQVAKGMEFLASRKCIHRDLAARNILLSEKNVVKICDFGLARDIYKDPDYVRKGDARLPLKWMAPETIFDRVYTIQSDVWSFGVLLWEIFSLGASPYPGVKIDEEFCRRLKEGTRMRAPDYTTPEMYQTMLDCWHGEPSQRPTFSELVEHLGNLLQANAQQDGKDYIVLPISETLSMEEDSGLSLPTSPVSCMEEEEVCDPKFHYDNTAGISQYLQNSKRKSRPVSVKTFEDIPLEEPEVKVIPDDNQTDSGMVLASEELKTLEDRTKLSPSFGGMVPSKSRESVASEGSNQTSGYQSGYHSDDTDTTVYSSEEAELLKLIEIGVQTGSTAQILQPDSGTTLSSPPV

Structure (SMILES)	First toxic concentration at 48 h in rat primary chondrocytes [1]	First toxic concentration at 24 h [1]	IC50 (Fyn)	IC50 (NF-kB)	COX2 gene expression, percentage of inhibitory effect at the highest non toxic concentration (COX2; 10 μM)	IC50 (ADAMTS-5)	MMP13 gene expression, percentage of inhibitory effect at the highest non toxic concentration (MMP13; 10 μM)	IC50 (VEGFR2)	inhibition at 3 µM [2, 3]	IL-1β gene expression, percentage of inhibitory effect at the highest non toxic concentration (IL-1β; 10 μM)	IL-6 gene expression, percentage of inhibitory effect at the highest non toxic concentration (IL-6; 10 μM)	also measured
Cc1ccc(NC(=O)c2ccnc(C(C)(C)O)c2)cc1CCc1cc(Nc2cnccn2)[nH]n1 [Compound 5, 2-(2-hydroxypropan-2-yl)-N-(4-methyl-3-(2-(5-(pyrazin-2-ylamino)-1H-pyrazol-3-yl)ethyl)phenyl)isonicotinamide]	10 µM	>10 µM	6 nM	3260 nM	10 μM 43%	5.5 µM	10 μM 32%	< 10 nM	79%	10 μM 84%	10 μM 89%	MMP3 gene expression, no effect (MMP3; 24 h): ne
CC(C)(C#N)c1cc(C(=O)Nc2ccc(F)c(CCc3cc(Nc4cnccn4)[nH]n3)c2)ccn1 [Compound 11, 2-(2-cyanopropan-2-yl)-N-(4-fluoro-3-(2-(5-(pyrazin-2-ylamino)-1H-pyrazol-3-yl)ethyl)phenyl)isonicotinamide]	>10 µM	>10 µM	21 nM	785 nM	10 μM 100%			< 10 nM		10 μM 100%	10 μM 100%	IC50 (MMP3): 2200 nM; ADAMTS-5 gene expression, percentage of inhibitory effect at the highest non toxic concentration (ADAMTS-5; 10 μM): 10 μM 100%; IC50 (MMP13; Rattus norvegicus, Chondrocyte, 24 h incubation): 2400 nM; inhibition at 10 µM [2, 3]: 89%
O=C(Nc1ccc(F)c(CCc2cc(Nc3cnccn3)[nH]n2)c1)c1cccc(C(F)(F)F)c1 [Compound 13, N-(4-fluoro-3-(2-(5-(pyrazin-2-ylamino)-1H-pyrazol-3-yl)ethyl)phenyl)-3-(trifluoromethyl) benzamide]	3 µM	3 µM	26 nM	308 nM				< 10 nM				IC50 (MMP3): 300 nM; COX2 gene expression, percentage of inhibitory effect at the highest non toxic concentration (COX2; 1 μM): 1 μM 96%; ADAMTS-5 gene expression, percentage of inhibitory effect at the highest non toxic concentration (ADAMTS-5; 1 μM): 1 μM 88%; MMP13 gene expression, percentage of inhibitory effect at the highest non toxic concentration (MMP13; 1 μM): 1 μM 94%; inhibition at 1 µM ([2]; Bos taurus, 1 μM, read-out: Bovine cartilage degradation induced by IL-1α, % inhibitory effect at max concentration): 97%; Inhibitory effect on the GAG release ([2]; at max concentration): 95-100%; IL-1β gene expression, percentage of inhibitory effect at the highest non toxic concentration (IL-1β; 1 μM): 1 μM 96%; IL-6 gene expression, percentage of inhibitory effect at the highest non toxic concentration (IL-6; 1 μM): 1 μM 100%
Cc1cnc(Nc2cc(CCc3cc(NC(=O)c4cccc(C(F)(F)F)c4)ccc3F)n[nH]2)c(C)n1 [Compound 14, N-(3-(2-(5-((3,5-dimethylpyrazin-2-yl)amino)-1H-pyrazol-3-yl)ethyl)-4-fluorophenyl)-3-(trifluoromethyl)benzamide]	10 µM	10 µM	31 nM	487 nM				10 nM	97%			MMP3 gene expression, percentage of inhibitory effect at the highest non toxic concentration (MMP3; 3 μM, 24 h): 3 μM 95%; COX2 gene expression, percentage of inhibitory effect at the highest non toxic concentration (COX2; 3 μM): 3 μM 100%; ADAMTS-5 gene expression, percentage of inhibitory effect at the highest non toxic concentration (ADAMTS-5; 3 μM): 3 μM 99%; MMP13 gene expression, percentage of inhibitory effect at the highest non toxic concentration (MMP13; 3 μM): 3 μM 99%; IL-1β gene expression, percentage of inhibitory effect at the highest non toxic concentration (IL-1β; 3 μM): 3 μM 99%; IL-6 gene expression, percentage of inhibitory effect at the highest non toxic concentration (IL-6; 3 μM): 3 μM 100%
Cc1ccc(NC(=O)c2cccc(S(=O)(=O)C(C)C)c2)cc1CCc1cc(Nc2ncccc2C)[nH]n1 [Compound 35, 3-(isopropylsulfonyl)-N-(4-methyl-3-(2-(5-((3-methylpyridin-2-yl)amino)-1H-pyrazol-3-yl)ethyl)phenyl) benzamide]	>10 µM	>10 µM	88 nM	1310 nM	10 μM 90%	3 µM	10 μM 88%	< 10 nM		10 μM 74%	10 μM 90%	MMP3 gene expression, percentage of inhibitory effect at the highest non toxic concentration (MMP3; 10 μM, 24 h): 10 μM 44%; IC50 ([2]; Bos taurus, head says nM, cells print μM, 48 h stimulation, read-out: Inhibitory effect on bovine cartilage degradation induced by IL-1α, IC50): 1500 nM
Cc1nc(C#N)cc(Nc2cc(CCc3cc(NC(=O)c4cccc(S(=O)(=O)N(C)C)c4)ccc3C)n[nH]2)n1 [Compound 37, N-(3-(2-(5-((6-cyano-2-methylpyrimidin-4-yl)amino)-1H-pyrazol-3-yl)ethyl)-4-methylphenyl)-3-(N,N-dimethylsulfamoyl)benzamide]	>10 µM	>10 µM	24 nM	2260 nM	10 μM 97%	4 µM	10 μM 95%	35 nM			10 μM 97%	MMP3 gene expression, percentage of inhibitory effect at the highest non toxic concentration (MMP3; 10 μM, 24 h): 10 μM 59%; inhibition at 10 µM [2, 3]: 99%; IC50 (IL-1β; Rattus norvegicus, Chondrocyte, 6 h incubation): 1600 nM
Cc1ccc(NC(=O)c2cccc(C(F)F)c2)cc1CCc1cc(Nc2cnccn2)[nH]n1 [Compound 33, 3-(difluoromethyl)-N-(4-methyl-3-(2-(5-(pyrazin-2-ylamino)-1H-pyrazol-3-yl)ethyl)phenyl) benzamide]	10 µM	10 µM	16 nM	363 nM				< 10 nM	91%			MMP3 gene expression, percentage of inhibitory effect at the highest non toxic concentration (MMP3; 3 μM, 24 h): 3 μM 81%; COX2 gene expression, percentage of inhibitory effect at the highest non toxic concentration (COX2; 3 μM): 3 μM 89%; ADAMTS-5 gene expression, percentage of inhibitory effect at the highest non toxic concentration (ADAMTS-5; 3 μM): 3 μM 90%; MMP13 gene expression, percentage of inhibitory effect at the highest non toxic concentration (MMP13; 3 μM): 3 μM 94%; IL-1β gene expression, percentage of inhibitory effect at the highest non toxic concentration (IL-1β; 3 μM): 3 μM 93%; IL-6 gene expression, percentage of inhibitory effect at the highest non toxic concentration (IL-6; 3 μM): 3 μM 100%
